Source: patent US20260308172A1, “TRICYCLIC COMPOUNDS FOR TREATMENT OF BACTERIAL INFECTIONS” (priority 2023, published 2026)
≈ marks a conversion by molar mass, not a printed value.

Experiments:
[1] = Human Microsome Stability Assay; type: in vitro ADME; conditions: 1 μM compound, 0.5 mg/mL liver microsomal protein, 1 mM NADPH, pH 7.4, 37° C., 0-30 minutes; for CLint scaled at 1 µM: human, liver microsomes, read-out: Clearance of Human microsome
Description: The human microsomal stability assay is used for early assessment of metabolic stability of compounds of present invention in human liver microsomes. Human liver microsomes (Cat. NO.: 452117, Corning, USA) were pre-incubated with test compound for 10 minutes at 37° C. in 100 mM potassium phosphate buffer, pH 7.4. The reactions were initiated by adding NADPH regenerating system. The final incubation mixtures contained 1 μM compound, 0.5 mg/mL liver microsomal protein, 1 mM MgCl2 and 1 mM NADPH in 100 mM potassium phosphate buffer, pH 7.4. After incubation times of 0, 3, 6, 9, 15 and 30 minutes at 37° C., 300 μL of cold acetonitrile (including internal standard) was added to 100 μL incubation mixture to terminate the reaction. Following precipitation and centrifugation, the amount of compound remaining in the samples were determined by LC-MS/MS. Controls of no NADPH regenerating system at zero and 30 minutes were also prepared and analyzed.

[2] = test system: Klebsiella pneumonia ATCC 43816; test: Minimal Inhibitory Concentration (MIC) assay, Klebsiella pneumonia ATCC 43816; type: cell-based; conditions: Klebsiella pneumoniae, ATCC43816, 20 h, read-out: MIC Klebsiella pneumoniae ATCC43816
Description: (§1) The antibacterial activity of the compounds of the present invention was evaluated against the commonly used quality control strain Escherichia coli ATCC 25922 and the rifampin-resistant mutant strain Klebsiella pneumonia ATCC 43816. Both were originally derived from human clinical samples and are available from ATCC (American Type Culture Collection). The in vitro potency of compounds to inhibit Escherichia coli (ATCC 25922) and Klebsiella pneumonia (ATCC 43816) growth was assessed by the MIC (Minimal Inhibitory Concentration) broth dilution method. Specifically compound dilutions were prepared from 10 mM DMSO stock solutions as follows: i) serial 2-fold dilution in 20 μL DMSO were prepared in a master plate (Greiner, Cat No: 651201), ii) 180 μL sterile distilled water was added to each aliquot and iii) 10 μL diluted compounds were transferred into a new assay plate (Costar, 3599).
(§2) Vials of each test microorganisms were maintained frozen in the vapor phase of a liquid nitrogen freezer. Single-use frozen vials of the two strains Escherichia coli ATCC 25922 (KWIKSTIK, 0335K) and Klebsiella pneumonia ATCC 43816, with predetermined CFU/mL, were taken out from the freezer, thawed at room temperature, and diluted in Cation-Adjusted Mueller Hinton Broth (CAMHB) to achieve a final inoculum of 5×10^5 CFU/mL. 90 μL bacteria containing broth was dispensed to the assay plate containing the pre-dispensed compound dilutions and mixed by pipetting 5 times.
(§3) Then the assay plates were incubated for 20 hours at 35° C. in ambient air. Following incubation, the MIC (μg/mL), the lowest concentration of drug that inhibits visible growth of the microorganism was read with the help of a magnification mirror and recorded.

[3] = test system: Escherichia coli ATCC 25922; test: Minimal Inhibitory Concentration (MIC) assay, Escherichia coli ATCC 25922; type: cell-based; conditions: ATCC25922, 20 h, read-out: MIC Escherichia coli ATCC25922
Description: as §1, §2, §3

Row | Compound | CLint scaled at 1 µM [1] [mL/min/kg] | MIC [2] [µg/mL] | MIC [3] [µg/mL] | Clearance of Human microsome [1] [mL/min/kg]
1 | O=C1O[C@@H](CO)[C@H]2COc3cc(S(=O)(=O)N4CCN(c5cc(C(F)(F)C6CCNCC6)cc(Cl)n5)CC4)ccc3N12 [Example 028, (3R,3aR)-7-[4-[6-chloro-4-[difluoro(4-piperidyl)methyl]-2-pyridyl]piperazin-1-yl]sulfonyl-3-(hydroxymethyl)-3a,4-dihydro-3H-oxazolo[4,3-c][1,4]benzoxazin-1-one] | 10.5 | 0.57 (≈ 0.928 µM) | 0.57 (≈ 0.928 µM) | –
2 | C[N+]1(CCN)CCC[C@H]1C(=O)N[C@H]1CC[C@H](C(F)(F)c2cc(Cl)nc(N3CCN(S(=O)(=O)c4ccc5c(c4)OC[C@@H]4[C@H](CO)OC(=O)N54)CC3)c2)CC1 (stereo in doubt) [Example 062, (2S)-1-(2-aminoethyl)-N-[4-[[2-chloro-6-[4-[[(3R,3aR)-3-(hydroxymethyl)-1-oxo-3a,4-dihydro-3H-oxazolo[4,3-c][1,4]benzoxazin-7-yl]sulfonyl]piperazin-1-yl]-4-pyridyl]-difluoro-methyl]cyclohexyl]-1-methyl-pyrrolidin-1-ium-2-carboxamide;chloride] | – | 0.67 | 0.67 | 6.2
3 | O=C1O[C@@H](CO)[C@@H]2COc3cc(S(=O)(=O)N4CCN(c5cc(C(F)(F)C6CCNCC6)cc(Cl)n5)CC4)ccc3N12 [Example 038, (3R,3aS)-7-[4-[6-chloro-4-[difluoro(4-piperidyl)methyl]-2-pyridyl]piperazin-1-yl]sulfonyl-3-(hydroxymethyl)-3a,4-dihydro-3H-oxazolo[4,3-c][1,4]benzoxazin-1-one] | 11.1 | 0.57 (≈ 0.928 µM) | 0.57 (≈ 0.928 µM) | –
4 | O=C1CCC2COc3cc(S(=O)(=O)N4CCN(c5cc(C(F)(F)[C@H]6CNCCO6)cc(Cl)n5)CC4)ccc3N12 (stereo partly drawn) [Example 030, 7-[4-[6-Chloro-4-[difluoro-[(2R)-morpholin-2-yl]methyl]-2-pyridyl]piperazin-1-yl]sulfonyl-2,3,3a,4-tetrahydropyrrolo[2,1-c][1,4]benzoxazin-1-one] | – | 0.492 (≈ 0.842 µM) | 0.49 (≈ 0.839 µM) | –
5 | CN1CCC(C(F)(F)c2cc(Cl)nc(N3CCN(S(=O)(=O)c4ccc5c(c4)OC[C@H]4[C@@H](CN)OC(=O)N54)CC3)c2)CC1 (stereo in doubt) [Example 010, cis-3-(aminomethyl)-7-[4-[6-chloro-4-[difluoro-(1-methyl-4-piperidyl)methyl]-2-pyridyl]piperazin-1-yl]sulfonyl-3a,4-dihydro-3H-oxazolo[4,3-c][1,4]benzoxazin-1-one] | – | 0.98 (≈ 1.56 µM) | 0.98 (≈ 1.56 µM) | –
6 | NC[C@H]1OC(=O)N2c3ccc(S(=O)(=O)N4CCN(c5cc(C(F)(F)C6COCCO6)cc(Cl)n5)CC4)cc3OC[C@H]12 (stereo in doubt) [Example 017, trans-3-(aminomethyl)-7-[4-[6-chloro-4-[1,4-dioxan-2-yl(difluoro)methyl]-2-pyridyl]piperazin-1-yl]sulfonyl-3a,4-dihydro-3H-oxazolo[4,3-c][1,4]benzoxazin-1-one] | – | 0.57 (≈ 0.925 µM) | 0.57 (≈ 0.925 µM) | –
7 | CN1CCC(C(F)(F)c2cc(Cl)nc(N3CCN(S(=O)(=O)c4ccc5c(c4)OCC4CCC(=O)N54)CC3)c2)CC1 (stereo not drawn) [Example 016, 7-[4-[6-Chloro-4-[difluoro-(1-methyl-4-piperidyl)methyl]-2-pyridyl]piperazin-1-yl]sulfonyl-2,3,3a,4-tetrahydropyrrolo[2,1-c][1,4]benzoxazin-1-one] | – | 1.86 (≈ 3.12 µM) | 1.9 (≈ 3.19 µM) | –
8 | NC1CC(=O)N2c3ccc(S(=O)(=O)N4CCN(c5cc(C(F)(F)C6COCCO6)cc(Cl)n5)CC4)cc3OCC12 (stereo not drawn) [Example 008, 3-Amino-7-[4-[6-chloro-4-[1,4-dioxan-2-yl(difluoro)methyl]-2-pyridyl]piperazin-1-yl]sulfonyl-2,3,3a,4-tetrahydropyrrolo[2,1-c][1,4]benzoxazin-1-one] | – | 0.5 (≈ 0.833 µM) | 0.5 (≈ 0.833 µM) | –
9 | NC[C@@H]1OC(=O)N2c3ccc(S(=O)(=O)N4CCN(c5cc(S(=O)(=O)C6CC6)cc(Cl)n5)CC4)cc3OC[C@@H]12 (relative stereo) [Example 003] | – | 1.94 (≈ 3.32 µM) | 0.97 (≈ 1.66 µM) | –
10 | NC[C@H]1OC(=O)N2c3ccc(S(=O)(=O)N4CCN(c5cc(C(F)(F)[C@@H]6COCCO6)cc(Cl)n5)CC4)cc3OC[C@@H]12 [Example 021, (3R,3aS)-3-(Aminomethyl)-7-[4-[6-chloro-4-[[(2S)-1,4-dioxan-2-yl]-difluoro-methyl]-2-pyridyl]piperazin-1-yl]sulfonyl-3a,4-dihydro-3H-oxazolo[4,3-c][1,4]benzoxazin-1-one] | – | 0.51 (≈ 0.828 µM) | 0.26 (≈ 0.422 µM) | –
11 | NC[C@H]1OC(=O)N2c3ccc(S(=O)(=O)N4CCN(c5cc(C(F)(F)[C@H]6CNCCO6)cc(Cl)n5)CC4)cc3OC[C@H]12 [Example 024, (3R,3aR)-3-(aminomethyl)-7-[4-[6-chloro-4-[difluoro-[(2R)-morpholin-2-yl]methyl]-2-pyridyl]piperazin-1-yl]sulfonyl-3a,4-dihydro-3H-oxazolo[4,3-c][1,4]benzoxazin-1-one] | – | 1.32 (≈ 2.15 µM) | 0.66 (≈ 1.07 µM) | –
12 | NC[C@@H]1OC(=O)N2c3ccc(S(=O)(=O)N4CCN(c5cc(C(F)(F)C6C7COCC76)cc(Cl)n5)CC4)cc3OC[C@@H]12 (relative stereo) [Example 018] | – | 0.28 (≈ 0.457 µM) | 0.28 (≈ 0.457 µM) | –
13 | NC[C@@H]1OC(=O)N2c3ccc(S(=O)(=O)N4CCN(c5cc(C(F)(F)[C@H]6CNCCO6)cc(Cl)n5)CC4)cc3OC[C@@H]12 [Example 023, (3S,3aS)-3-(aminomethyl)-7-[4-[6-chloro-4-[difluoro-[(2R)-morpholin-2-yl]methyl]-2-pyridyl]piperazin-1-yl]sulfonyl-3a,4-dihydro-3H-oxazolo[4,3-c][1,4]benzoxazin-1-one] | – | 0.33 (≈ 0.537 µM) | 0.33 (≈ 0.537 µM) | –
14 | NC[C@@H]1OC(=O)N2c3ccc(S(=O)(=O)N4CCN(c5cc(C(F)(F)F)cc(Cl)n5)CC4)cc3OC[C@@H]12 (relative stereo) [Example 001] | – | 0.46 (≈ 0.84 µM) | 0.46 (≈ 0.84 µM) | –
15 | NCC[N+]1(CCNC(=O)[C@H]2CC[C@H](C(F)(F)c3cc(Cl)nc(N4CCN(S(=O)(=O)c5ccc6c(c5)OC[C@H]5[C@H](CO)OC(=O)N65)CC4)c3)CC2)CCCC1.[Cl-] [Example 064, 4-[[2-[4-[[(3R,3aS)-3-(hydroxymethyl)-1-oxo-3a,4-dihydro-3H-oxazolo[4,3-c][1,4]benzoxazin-7-yl]sulfonyl]piperazin-1-yl]-6-chloro-4-pyridyl]-difluoro-methyl]-N-[2-[1-(2-aminoethyl)pyrrolidin-1-ium-1-yl]ethyl]cyclohexanecarboxamide; chloride] | – | 2.85 | 2.8 | –
16 | C[N@+]1(CC(N)=O)CCC[C@H]1C(=O)N[C@H]1CC[C@H](C(F)(F)c2cc(Cl)nc(N3CCN(S(=O)(=O)c4ccc5c(c4)OC[C@@H]4[C@H](CO)OC(=O)N54)CC3)c2)CC1 [Example 059, (1R,2S)—N-[4-[[2-[4-[[(3R,3aR)-3-(hydroxymethyl)-1-oxo-3a,4-dihydro-3H-oxazolo[4,3-c][1,4]benzoxazin-7-yl]sulfonyl]piperazin-1-yl]-6-chloro-4-pyridyl]-difluoro-methyl]cyclohexyl]-1-(2-amino-2-oxo-ethyl)-1-methyl-pyrrolidin-1-ium-2-carboxamide;chloride] | – | 0.66 | 0.66 | –
17 | Nc1ccc(S(=O)(=O)c2cc(Cl)nc(N3CCN(S(=O)(=O)c4ccc5c(c4)OCC4CCC(=O)N54)CC3)c2)cc1 (stereo not drawn) [Example 013, 7-[4-[4-(4-Aminophenyl)sulfonyl-6-chloro-2-pyridyl]piperazin-1-yl]sulfonyl-2,3,3a,4-tetrahydropyrrolo[2,1-c][1,4]benzoxazin-1-one] | – | 0.24 (≈ 0.397 µM) | 0.47 (≈ 0.778 µM) | –
18 | CC(N)C(=O)N1CC(C(F)(F)c2cc(Cl)nc(N3CCN(S(=O)(=O)c4ccc5c(c4)OC[C@@H]4[C@H](CO)OC(=O)N54)CC3)c2)C1 (stereo partly drawn) [Example 041, (3R,3aR)-7-[4-[4-[[1-(2-aminopropanoyl)azetidin-3-yl]-difluoro-methyl]-6-chloro-2-pyridyl]piperazin-1-yl]sulfonyl-3-(hydroxymethyl)-3a,4-dihydro-3H-oxazolo[4,3-c][1,4]benzoxazin-1-one] | – | 2.4 (≈ 3.65 µM) | 2.4 (≈ 3.65 µM) | –
